Assay [1] deals with human LSD1 (Homo sapiens (Human), UniProt O60341). Nature of the assay: In vitro enzyme inhibition assay LSD-1 (TR-FRET). It counts as biochemical. Particulars: full-length human LSD1, H3K4me1-biotin peptide. On the procedure: This assay determines the ability of a test compound to inhibit LSD1 demethylase activity.
The enzymatic assay of LSD1 activity is based on Time Resolved-Fluorescence Resonance Energy Transfer (TR-FRET) detection.
The ability of the compounds disclosed herein to inhibit LSD1 activity was quantified and the respective IC50 value was determined.

For assay [2], the system named is THP-1 (AML) cells. The assay is described as follows: LSD1 CD11b cellular assay (flow cytometry). The format is cell-based. The conditions noted are these: Homo sapiens, 96 h; CD11b expression in THP-1 cells, 4 days incubation. As to the method:
To analyze LSD1 inhibitor efficacy in cells, a CD11b flow cytometry assay was performed. LSD1 inhibition induces CD11b expression in THP-1 (AML) cells which can be measured by flow cytometry. […] LSD1 test compounds were serially diluted in DMSO. The dilutions were added to each well accordingly to a final concentration of 0.2% DMSO. The cells were incubated at 37 degrees Celsius in 5% CO2 for 4 days. 250 μL of each well was transferred to a well in a 96 well round bottom plate. The plate was centrifuged at 1200 rpm at 4 degrees Celsius in a Beckman Coulter Alegra 6KR centrifuge for 5 minutes. The media was removed leaving the cells at the bottom of the wells. The cells were washed in 100 μL cold HBSS (Hank's Balanced Salt Solution) plus 2% BSA (Bovine Serum Albumin) solution and centrifuged at 1200 rpm at 4 degrees Celsius for 5 minutes. The wash was removed. […] The cells were centrifuged and washed two times in 100 μl HBSS plus 2% BSA. After the final spin the cells were resuspended in 100 μL HBSS plus 2% BSA containing 1 ug/mL DAPI (4′,6-diamidino-2-phenylindole). The cells were then analyzed by flow cytometry in a BD FACSAria machine. Cells were analyzed for CD11b expression. The percent of CD11b expressing cells for each inhibitor concentration was used to determine an IC50 curve for each compound analyzed.

Data on ten molecules can be found in patent US10864202B2, “Inhibitors of lysine specific demethylase-1” (CELGENE QUANTICEL RESEARCH, INC., priority 2014, dated 2020).

Molecules are shown by their SMILES.

As to `Cc1ccc(-c2cnc(NCC3CCCNC3)nc2-c2ccc(C#N)cc2)cc1` (racemic) [Example 31, (±)-4-5-(4-methylphenyl)-2-[(piperidin-3-ylmethyl)amino]pyrimidin-4-yl]benzonitrile], in assay [1], the IC50 is less than 100 nM.

With `Cc1ccc(-c2cnc(NCC3CNCCO3)nc2-c2ccc(C#N)cc2)cc1` (racemic) [Example 33, (±)-4-[5-(4-methylphenyl)-2-[(morpholin-2-ylmethyl)amino]pyrimidin-4-yl]benzonitrile], in assay [1], the IC50 is less than 100 nM. Turning to `N#Cc1ccc(-c2cc3c(ccn3C[C@H]3CCNC3)nc2Cl)cc1` [Example 4], in assay [1], the IC50 fell in the range of 100 to 1000 nM. On the same count and under the same terms, with `N#Cc1ccc(-c2cc3c(ccn3C[C@@H]3CCNC3)nc2N2CCOCC2)cc1` [Example 6] the figure was 100 to 1000 nM; with `N#Cc1ccc(-c2cc3c(ccn3CC3(F)CCNC3)nc2N2CCOCC2)cc1` (stereo not shown) [Example 8, 4-[1-[(3-fluoropyrrolidin-3-yl)methyl]-5-morpholin-4-ylpyrrolo[3,2-b]pyridin-6-yl]benzonitrile], 100 to 1000 nM. The same measure, in the same setting: for `N#Cc1ccc(-c2nc(NC[C@H]3CCNC3)ncc2Cl)cc1` [Example 17, 4-(5-chloro-2-{[(3S)-pyrrolidin-3-ylmethyl]amino}pyrimidin-4-yl)benzonitrile] the value was 100 to 1000 nM. `N#Cc1ccc(-c2nc(NCC3CCNC3)ncc2C#CC2CC2)cc1` (stereo not shown) [Example 26] yielded an IC50 in assay [2] of 100 to 1000 nM. `Cc1ccc(-c2cnc(N[C@@H]3C[C@H]4CNC[C@H]4C3)nc2-c2ccc(C#N)cc2)cc1` [Example 27] returned an IC50 in assay [1] of 100 to 1000 nM. In assay [1], `Cc1ccc(-c2cnc(N3CC4CNCC(C3)O4)nc2-c2ccc(C#N)cc2)cc1` [Example 41, 4-[5-(4-methylphenyl)-2-{9-oxa-3,7-diazabicyclo[3.3.1]nonan-3-yl}pyrimidin4-yl]benzonitrile] came in with an IC50 of 100 to 1000 nM. The same measure, in the same setting: for `N#Cc1ccc(-c2nc(N3CC4CNCC(C3)O4)ncc2-c2ccc(F)cc2)cc1` [Example 42, 4-[5-(4-fluorophenyl)-2-{9-oxa-3,7-diazabicyclo[3.3.1]nonan-3-yl}pyrimidin-4-yl]benzonitrile] the value was 100 to 1000 nM.

The term IC50 denotes the concentration at which inhibition is half-maximal.
